Key:
[1] = system: low-birth-weight suckling piglets; assay: Arginine supplementation: growth performance of low-birth-weight suckling piglets; assay type: in vivo; settings: 0.04% arginine in feed vs without
Text: (§1) Three-day-old suckling piglets with low birth weight were used as experimental animals. They were randomly divided into two treatments, fed with 0.04% and without arginine feed. Each treatment had 8 replicates, and each replicate had 1 piglet. The test period was 21 days to investigate the growth performance of piglets.

[2] = system: low-birth-weight suckling piglets; assay: Arginine supplementation: serum antioxidant enzyme activity and MDA content; assay type: in vivo; settings: 0.04% arginine in feed vs without
Text: as §1, with “days. After the test, the piglet serum was collected” for “days”, “antioxidant capacity” for “growth performance”, “the piglet serum.” for “piglets.”

N=C(N)NCCC[C@H](N)C(=O)O [Arginine Group, arginine]
significantly improve: daily gain of weak piglets (in words) [1] | feed intake of weak piglets (in words) [1] | antioxidant capacity of weak piglets (in words) [2]
